“Also recorded” adds a separate entry of the source. Read-outs that look alike come from different tables or passages of the source.
What was measured:
[1] = system: murine leukemia virus (MULV); settings: for survival rate at 21 days / post-treatment CD4/CD8 ratio: 72 feet; for survival rate at 21 days: 2 hours daily; for survival rate at 21 days / mice that died during the treatment period: 12 mice per group; for post-treatment CD4/CD8 ratio / post-treatment CD4 count (FACS): 2 hours, versus post-treatment control; for post-treatment CD4/CD8 ratio: six days a week, three weeks; for hypocellular medullary sinuses of lymph nodes: H&E histology after three-week treatment; for lymph node architecture: after 21 days of treatment; for spleen size / lymph node size: after three-week treatment; for spleen size: N2 and air versus control and oxygen; for lymph node size: area = length times width of cut node; for post-treatment CD4 count (FACS): orbital blood, 72 feet of seawater, six days a week for three weeks; for physical condition / grooming: versus control and oxygen groups; for mice that died during the treatment period: days 6 and 14; for overall effect relative to control conditions: 72 ft for 2 hours, 6 days per week
Experimental: FIG. 5A represents the cross section of an actual lymph node removed from a mouse that took part in a study of the present method. […] As a result of the observations on divers in Puerto Rico, it was decided to first test this concept in murine leukemia virus-MULV mice exposed to increased pressures of nitrogen at a depth of 72 feet for 2 hours 6 days per week for 3 weeks. […] The murine model, AKR-J strain of mice which are viremic from birth, were used to test the hypotheses. The animal model was chosen because of its striking similarities to human AIDS. […] The mice were separated at random into four groups of 12 mice in each group. Group 1 was control. Group 2 was exposed to air at sea level pressure. Group 3 was exposed to N2 and Group 4 to O2 under the following conditions. The mice were placed in a small (5.88 cubic feet), temperature controlled hyperbaric chamber and compressed with Air, N2+6.5% O2 or 100% O2. Groups were taken separately to a pressure of 72 feet of seawater. The animals reached maximum treatment pressure in 6-7 minutes and remained at this pressure for 2 hours. They were then returned to normal barometric pressure at a rate of one foot per minute (72 minutes). This process was performed each day for six days a week for three weeks. The control group of animals (Group 1) was exposed to normal surface conditions for the same period of time.
Cytological and histological measurements. Pre- and post-flow cytometry (FACS) analysis was performed on samples of orbital blood from 10 animals in each group labeled with anti-mouse CD4/CD8 fluorescence markers. Animals were anesthetized using methoxyflurane and blood was collected with a heparinized Pasteur pipette. Lymphocytes were stained with anti CD4-PE and anti CD8-FITC (Pharmingen) for 15 minutes. Erythrocytes were hemolyzed in lysis solution (Becton Dickinson) for 10 minutes, washed with PBS/azide solution, centrifuged and the supernatant was discarded. The pellet was fixed with 1% formalin in PBS, and stored at 4° C. until cytometry (Becton Dickinson FACS Scan; San Jose, Calif.). At the end of the three-week treatment period, blood samples were obtained and the mice were sacrificed. The lymph nodes, spleen, thymus, liver and brain tissue were collected immediately placed in 10% formalin. Following fixation and routine paraffin processing, 4 μm sections of lymph nodes were obtained after cutting randomly selected nodes through the center parallel to the long axis of the node. The slides were stained with hematoxylin and eosin (H&E) and reviewed by a pathologist that was blinded to knowledge of animal treatment groups. The presence of secondary follicles and paracortical expansion were quantitated for each animal as a percentage of lymph nodes. As medullary sinuses were not present in every lymph node profile, the presence of medullary sinus hypocellularity was quantitated as a percentage of lymph nodes which contained sinuses. In addition the approximate surface area of the cut node was computed from the product of the length and width in its maximum dimensions. The remaining tissues were examined qualitatively for pathological changes.
FIG. 6 is bar chart showing the average size of lymph nodes taken from the mice of different groups in the study discussed above. The lymph nodes were taken from the cervical, thoracic, and abdominal regions and fixed in 10% formalin. The nodes were then sectioned through the center of the long axis, and area was computed as the product of length times width.

[2] = cited from earlier work
[3] = listed as Mixtures with enriched nitrogen

N#N [N2, nitrogen]
survival rate at 21 days [1]: 100% | post-treatment CD4/CD8 ratio [1]: significantly higher | post-treatment CD4/CD8 ratio [1, 3]: increased | hypocellular medullary sinuses of lymph nodes [1]: significantly more hypocellular sinuses were present in the control group and the O2 group than in the N2 and Air groups; also recorded: significant differences in sinus cellularity | lymph node architecture [1]: improved lymph node architecture | lymph node architecture [1, 3]: preserved | spleen size [1]: smaller by about one third | lymph node size [1]: smaller | lymph node size ([1]; listed as hyperbaric N2): significantly attenuated the lymphadenopathy | lymph node size ([1]; listed as nitrogen): significant reduction | number of nodes with paracortical expansion ([1]; lymph node histology): reduction | number of nodes with secondary follicles ([1]; lymph node histology): reduction | number of sinuses with histiocytes ([1]; lymph node histology): increase | post-treatment CD4 count (FACS) [1]: increased and were significantly higher than post-treatment CD4 count in control animals | post-treatment CD4 count (FACS) ([1]; listed as hyperbaric N2): improved CD4 counts | physical condition / grooming [1]: better grooming | physical condition / grooming [1, 3]: improved | physical condition / grooming ([1]; listed as nitrogen): appeared physically more healthy; also recorded: improved physical condition

O=O [O2, oxygen, reference compound]
mice that died during the treatment period [1]: Two | mice that died during the treatment period ([1]; listed as oxygen): two | survival rate at 21 days [1]: 83% | post-treatment CD4/CD8 ratio [1]: significantly lower | post-treatment CD4/CD8 ratio ([1]; listed as hyperbaric oxygen): significantly decreased | post-treatment CD4/CD8 ratio ([1]; listed as oxygen): significantly lower | overall effect relative to control conditions ([1]; listed as Oxygen): significant negative effect | overall effect relative to control conditions ([1]; listed as hyperbaric oxygen): no beneficial effect | overall effect relative to control conditions ([1]; listed as oxygen): fared worse than the control group | hypocellular medullary sinuses of lymph nodes [1]: significantly more hypocellular sinuses | spleen size [1]: much bigger | lymph node size [1]: much bigger | post-treatment CD4 count (FACS) ([1]; listed as hyperbaric oxygen): significantly decreased

[N-]=[N+]=O [nitrous oxide]
anesthetic effect ([2]; 90% N2O and 10% O2 at atmospheric pressure (760 mmHg)): many subjects do not even lose consciousness | anesthetic effect ([2]; 1520 mmHg or 2 atmospheres absolute (1368 mmHg N2O+125 mmHg oxygen)): deep anesthesia

— US20090142416A1, “Methods for the treatment of HIV and other viruses” (priority 2003, published 2009)
